Tests used:
[1] = Oral toxicity, lethal dose 50 (Miller and Tainter method); settings: in vivo, lethal dose 50 calculated by the Miller and Tainter method, read-out: Toxicité v. o. DE50
Description: Les composés les plus actifs de la présente invention ont été soumis à des contrôles de toxicité.
La dose létale 50 et les activités pharmacologiques sont rapportées dans le Tableau (I).
La dose létale a été recherchée par voie orale et calculée selon la méthode de Miller et Tainter (Proc. Soc. Exper. Biol. Med., 1944,57,261).

[2] = tested on: souris mâles de souche swiss; assay: Rotating rod test (Rota-Rod); assay type: in vivo; settings: Mus musculus, po, male Swiss mice, 10 per dose, effective if the mouse falls off the rod in less than two minutes, read-out: Rota-Rod v. o. DE50
Description: On réalise cet essai sur des souris mâles de souche swiss. On place la souris sur une tige de bois d'un diamètre de 3 crn, tournant à raison de cinq tours par minute. On choisit les souris qui peuvent rester sur la tige pendant au moins trois minutes au cours d'essais successifs et on les rassemble par groupe de dix pour l'essai de chaque dose.
Si la souris tombe de la tige en moins de deux minutes, on considère le composé essayé comme efficace.
Les résultats sont exprimés en DE50 selon: N. W. Dunham et T. S. Miva (J. Amer. Pharm. Asso., 1957, 46,208).

[3] = tested on: souris mâles de souche swiss; assay: Pentetrazol antagonism (protection against tonic convulsions); assay type: in vivo; settings: Mus musculus, po, 60 min before 125 mg/kg s.c. pentetrazol, male Swiss mice, observed for two hours, read-out: Pentétrazol v. o. DE50
Experimental: Ce test est réalisé sur un groupe de dix souris mâles de souche Swiss. Dans un délai de quinze minutes après l'injection sous-cutanée de 125 mg/kg de pentétrazol, les souris ont des convulsions toniques dont l'issue est fatale. Pour l'essai, on administre par voie orale les composés soixante minutes avant l'injection de pentétrazol. Les animaux sont observes pendant deux heures après administration du pentétrazol.
Les résultats sont exprimés par la dose efficace DE50 selon Goodmann et Coll. (J. Pharmacol. 108, 1953).

Structure (SMILES) | LD50 [1] [mg/kg] | ED50 [2] [mg/kg] | ED50 [3] [mg/kg]
CN(C(=O)CNC1CCCCC1)c1ccc(Br)cc1C(=O)c1ccccc1 [Br] | > 1000 | 22 | –
CN(C(=O)CNC1CCCCC1)c1ccc(C(F)(F)F)cc1C(=O)c1ccccc1 [Exemple 12, N-méthyl N'-cyclohexyl (benzoyf-2' trifluorométhyl-4') glycylanilide] | > 1000 | 8 | 1
CN(C(=O)CNC1CCCCC1)c1ccc(C#N)cc1C(=O)c1ccccc1 [Exemple 13, Chlorhydrate de N-méthyl N'-cyclohexyl (benzoyl-2' cyano-4') glycylanilide] | > 1000 | 7 | 0.9

— patent EP0015214B1, “Derivatives of substituted 2-benzoyl glycinanilides, their preparation and their use in anxiolytic medicaments” (PIERRE FABRE S.A., priority 1979, dated 1980)
